From paper PMC9982066, “Inhibition of Ehrlichia chaffeensis infection by cell-permeable macrocyclic peptides that bind type IV secretion effector Etf-1” (PNAS Nexus, 2023)
Starred links: 1 amine or outer side, 2 acyl side, 3 side chain; linkers in the order of their positions; H or OH if unused. Positions of bridges follow the written chain, without caps; N, C: chain ends. Non-standard residues stand in square brackets, D forms with d. Residues, ends and D or L forms follow the SMILES beside them. Trimesoyl = O=C(c1cc(C(=O)[*:2])cc(C(=O)[*:3])c1)[*:1]; 2Nal = N[C@@H](Cc1ccc2ccccc2c1)C(=O)O; Dap = NC[C@H](N)C(=O)O

What was measured:
[1] = tested on: E. chaffeensis; test: morphological examination of E. chaffeensis infection of THP-1 cells by Diff-Quik staining; conditions: THP-1 cells, Fig. S4 (with Figs. 5, S3)
[2] = target: Etf-1 (Ehrlichia chaffeensis, UniProt Q2GG12); test: FP assay of Etf-1 binding with FAM-labeled peptides
Chain of Etf-1 (Q2GG12 entry or part of it): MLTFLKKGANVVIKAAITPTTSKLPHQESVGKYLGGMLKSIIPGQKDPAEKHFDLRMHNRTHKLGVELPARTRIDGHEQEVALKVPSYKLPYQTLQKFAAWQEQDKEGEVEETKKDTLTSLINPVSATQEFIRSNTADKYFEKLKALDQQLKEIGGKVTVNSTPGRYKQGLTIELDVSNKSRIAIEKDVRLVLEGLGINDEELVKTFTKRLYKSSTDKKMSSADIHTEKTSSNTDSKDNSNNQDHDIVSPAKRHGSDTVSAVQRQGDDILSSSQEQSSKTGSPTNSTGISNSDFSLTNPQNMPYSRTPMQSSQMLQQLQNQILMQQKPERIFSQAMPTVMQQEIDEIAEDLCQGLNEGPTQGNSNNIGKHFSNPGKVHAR
Experimental: The peptides were labeled at their C-terminus with carboxyfluorescein (FAM) through a β-Ala-β-Ala-Lys linker and evaluated for binding to Etf-1 by using a fluorescence polarization (FP) assay. […] This outcome is not unexpected, as screening OBOC libraries is often complicated by false positives, due to the presence of high ligand densities on library beads ([28]).
Fig. 2. Determination of binding affinity of Etf-1-binding peptides by FP assay. […] FAM-labeled peptide (50 nM) was incubated with serially diluted Etf-1 (starting from 25–30 μM in PBS, pH 7.4, supplemented with 5 mM DTT and 0.01% Triton X-100) for 1 h at RT. FP values were measured on a Tecan Infinite M1000 Pro plate reader. Titration curves (n ≥ 3) were fitted using GraphPad Prism and analyzed with TraceDrawer to calculate dissociation constants (KD). […] Data were analyzed using GraphPad Prism and fitted to a four-parameter variable slope equation to determine IC50 values.
Etf-1 and macrocyclic peptides were serially diluted in PBS supplemented with 5 mM DTT and 0.01% Triton X-100 (v/v). FAM-labeled peptides (50 nM) were prepared from a 10-μM DMSO stock and incubated with serially diluted Etf-1 for 1 h at room temperature (RT). Twenty microliters of the solutions were transferred to a black 384-well plate (Greiner Bio-One) and FP values were measured on a Tecan Infinite M1000 Pro plate reader with excitation and emission wavelengths at 470 and 535 nm, respectively. Titration curves (n ≥ 3) were fitted using GraphPad Prism v8.0 (GraphPad, La Jolla, CA, USA), and analyzed with TraceDrawer software v1.8 (Ridgeview Instruments AB, Uppsala, Sweden) to calculate the dissociation constant (KD, in nM).

[3] = tested on: E. chaffeensis; test: E. chaffeensis infection of THP-1 cells, qPCR of 16S rRNA gene normalized to human actin; type: cell-based, Ehrlichia chaffeensis; conditions: 10 μM, 2 days, vs DMSO control
[4] = tested on: Etf-1-GFP; test: mitochondrial localization of ectopically expressed Etf-1-GFP in RF/6A cells; type: cell-based, Ehrlichia chaffeensis; conditions: 10 μM, 2 days
Experimental: For mitochondria localization analysis, RF/6A cells were seeded onto a cover glass in a 12-well plate for 3 h, then infected with E. chaffeensis at ∼30 MOI. Alternatively, cells were transfected with Etf-1-GFP or Etf-1-DsRed plasmids using Fugene HD (Promega) or by electroporation at 100 V and 1,000 µF using the Gene Pulser Xcell System (BioRad) according to the manufacturers’ instructions ([16]). […] To examine the roles of macrocyclic peptides on Etf-1 localization on E. chaffeensis inclusions, infected RF/6A cells were treated with 10 μM peptides at 3 h pi for 2 days. At 2 days pi or pt, cells were washed 3 times with PBS, then fixed in 4% PFA for 20 min. Native Etf-1 and mitochondria marker cytochrome C proteins were labeled with rabbit anti-Etf-1 IgG and mouse anti-cytochrome C, then with AF488-conjugated goat anti-rabbit and anti-mouse secondary antibodies in PGS (PBS with 0.1% gelatin and 0.1% saponin) for 1 h each at RT. Host-cell and Ehrlichial DNAs were stained with 300 nM DAPI, and fluorescence with differential interference contrast images were observed and captured with a DeltaVision deconvolution microscope (Applied Precision, Issaquah, WA, USA). Percentages of Etf-1 protein colocalization with macrocyclic peptides or E. chaffeensis inclusions were quantified by counting 10–20 cells per group from three independent experiments.

[5] = tested on: BECN1 binding to Etf-1; test: streptavidin magnetic beads pull-down of BECN1 with biotin-Etf-1, Western blot; type: biochemical; conditions: 10 µM peptide; band intensities, DMSO control set as 1; Fig. 8B

C[C@H]1NC(=O)[C@H](CO)NC(=O)[C@@H](CCC(=O)O)NC(=O)c2cc3cc(c2)C(=O)NC[C@H](NC(=O)[C@H](CO)NC(=O)[C@H](Cc2c[nH]cn2)NC(=O)[C@@H](Cc2ccccc2)NC1=O)C(=O)N[C@H](Cc1ccccc1)C(=O)N[C@@H](Cc1ccc2ccccc2c1)C(=O)N[C@@H](CCCNC(=N)N)C(=O)N[C@H](CCCNC(=N)N)C(=O)N[C@@H](CCCNC(=N)N)C(=O)N[C@H](CCCNC(=N)N)C(=O)N[C@H](C(N)=O)CNC3=O [Peptide C17, TMA-glu-Ser-ala-phe-His-Ser-Dap-phe-Nal-Arg-arg-Arg-arg-Dap] ([dE]S[dA][dF]HS[Dap][dF][2Nal]R[dR]R[dR][Dap]-NH2; linker N-7-14 via Trimesoyl)
E. chaffeensis infection (numbers and sizes of morulae) [1]: did not inhibit
Kd [2]: > 25 µM
inhibition of E. chaffeensis infection [3]: no effect
effect on mitochondrial localization of Etf-1-GFP [4]: neither peptide B7 nor C17 affected mitochondrial localization
BECN1/Etf-1 Ratio [5]: 1.17
